This is an account of results in ChEMBL document CHEMBL1201862, “PubChem BioAssay data set” (2004).

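The compound was tested at five concentrations on cells cultured in 96-well plates, with a 48-hour exposure period. Abbreviation: GI50, concentration required for 50% inhibition of growth.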 Activity calls are given as the source filed them. Cut-off read from the data, not from the text of the source: active = GI50 up to about 1.1 µM and inactive = higher.

Some test systems named below: EKVX; HL-60; A549; Malme-3M; 786-0; MOLT-4; SF-295; SF-539; RPMI-8226; HT-29; SNB-19; SF-268; TK-10; SNB-75; OVCAR-4; NCI-H522; U-251.
What all share (experiment): NCI-60 cell line screen, 48 h

As to `CC(=O)Nc1ccc(/C=N\N2C(=O)c3ccccc3C2=O)cc1`, the GI50 with EKVX, in the test with HL-60, with A549, with Malme-3M, in the test on 786-0 and with MOLT-4 was > 100 µM (inactive) throughout. For the same compound, the GI50 in the test with SF-295, with SF-539, in the test on RPMI-8226, in the test on HT-29, with SNB-19 and in the test with SF-268 was > 100 µM (inactive) in each case. Also, the GI50 in the test on TK-10, in the test on SNB-75 and in the test on OVCAR-4 was > 100 µM (inactive) throughout.
`O=C1c2ccccc2C(=O)N1CCN(CCN1C(=O)c2ccccc2C1=O)Cc1ccccc1`: the GI50 in the test on EKVX, in the test on HL-60, in the test on NCI-H522, in the test with A549, in the test on 786-0 and in the test on MOLT-4 was > 100 µM (inactive) in each case. The GI50 in the test on SF-295, in the test on RPMI-8226, in the test on SNB-19, with U-251, in the test with SF-268 and in the test with TK-10 was > 100 µM (inactive) in each case. Besides, the figures for the GI50 in the test on SNB-75 and in the test on OVCAR-4 were > 10 µM (inactive) and > 100 µM (inactive), respectively.
`Cc1cccc(NC(=O)/C(=N\NC(C)(C)C)C2NC(=S)NC2=O)c1C` (stereo not given): the GI50 is 59.6 µM (inactive) with EKVX; > 100 µM (inactive) in the test on HL-60; > 100 µM (inactive) in the test on A549; > 100 µM (inactive) in the test with Malme-3M; > 100 µM (inactive) with 786-0; > 100 µM (inactive) in the test with MOLT-4. Further, the GI50 in the test with SF-295, in the test on SF-539, in the test on RPMI-8226, with SNB-19, with U-251 and in the test on TK-10 was > 100 µM (inactive) in each case. In addition, in the test with OVCAR-4, the GI50 was > 100 µM (inactive).
Regarding `C=C(/C=C/C=C(\CO)CCC=C(C)C)[C@H]1CCC2([C@H](CCCO)/C(=C(/C)C=O)CC[C@]2(C)O)[C@H]1O` (stereo not given in full), the GI50 with EKVX was 83.8 µM (inactive); in the test on HL-60 it was 56.1 µM (inactive); in the test on A549, 59 µM (inactive); with Malme-3M it was > 100 µM (inactive); with 786-0 it was > 100 µM (inactive); in the test with MOLT-4 it was > 100 µM (inactive). For the same compound, the GI50 in the test with SF-295 was 21.2 µM (inactive); in the test with SF-539, 83.4 µM (inactive); with RPMI-8226, > 100 µM (inactive); with HT-29, > 100 µM (inactive); in the test with SNB-19, > 100 µM (inactive); in the test with U-251, > 100 µM (inactive). The GI50 is 82 µM (inactive) in the test on TK-10, 58.6 µM (inactive) in the test with SNB-75 and > 100 µM (inactive) in the test on OVCAR-4.
As to `CC1=C(O)C(=O)C2C(=O)C1C(C)C2c1ccccc1` (stereo not given), the GI50 in the test on EKVX, in the test with NCI-H522, in the test on A549, in the test on Malme-3M, in the test on 786-0 and with MOLT-4 was > 100 µM (inactive) each time. Further, the GI50 in the test with SF-295, in the test on SF-539, in the test with RPMI-8226, in the test with HT-29, with SNB-19 and in the test on U-251 was > 100 µM (inactive) each time. For the same compound, the GI50 in the test with SF-268, in the test on TK-10, in the test on SNB-75 and in the test on OVCAR-4 was > 100 µM (inactive) in each case.
For the compound `C[C@]12CCC(=O)C=C1CC[C@@H]1C2CC[C@]2(C)c3nn(-c4ccccc4)nc3CC12` (stereo not given in full), the GI50 with EKVX, in the test on HL-60, in the test on A549, in the test with Malme-3M, with 786-0 and with MOLT-4 was > 100 µM (inactive) throughout. Besides, the GI50 in the test on SF-295, in the test on SF-539, in the test on RPMI-8226, in the test with HT-29, in the test with SNB-19 and in the test on U-251 was > 100 µM (inactive) in each case. The GI50 in the test with SF-268, in the test with TK-10, with SNB-75 and in the test on OVCAR-4 was > 100 µM (inactive) in each case.
Turning to `COC1OC(CO)C(O)C(OC(C)=O)C1NC(=O)N(CCCl)N=O` (stereo not given), the GI50 in the test on EKVX was > 100 µM (inactive); in the test with HL-60, 3.52 µM (inactive); with NCI-H522, > 100 µM (inactive); with A549 it was > 100 µM (inactive); in the test on Malme-3M, > 100 µM (inactive); with 786-0, 81.7 µM (inactive). Besides, the GI50 in the test with MOLT-4 was 95.9 µM (inactive); with SF-295, 42.7 µM (inactive); in the test on SF-539, 34.3 µM (inactive); in the test on HT-29, > 100 µM (inactive); in the test with SNB-19 it was > 100 µM (inactive); in the test with SF-268, 21.3 µM (inactive). In addition, the GI50 in the test on TK-10 is > 100 µM (inactive); in the test with SNB-75, 46 µM (inactive); in the test with OVCAR-4, > 100 µM (inactive).
On to `COc1ccc2ccccc2c1C1OC(=O)c2ccccc21` (stereo not given), for which the GI50 was > 100 µM (inactive) with EKVX; 44.3 µM (inactive) with HL-60; 63.5 µM (inactive) in the test on NCI-H522; 96.2 µM (inactive) in the test on A549; > 100 µM (inactive) in the test on Malme-3M; > 100 µM (inactive) with 786-0. Also, the GI50 with MOLT-4 is 44.2 µM (inactive); in the test with SF-295, 56.2 µM (inactive); with SF-539 it was > 100 µM (inactive); in the test on RPMI-8226, > 100 µM (inactive); in the test with HT-29, > 100 µM (inactive); in the test with SNB-19, > 100 µM (inactive). Besides, the GI50 in the test on U-251 was > 100 µM (inactive); in the test on SF-268, > 100 µM (inactive); in the test with TK-10 it was > 100 µM (inactive); in the test on OVCAR-4, 82.8 µM (inactive).
On to `O=C1Nc2ccc([N+](=O)[O-])cc2/C1=N/Nc1ccc([N+](=O)[O-])cc1`, for which the GI50 is 35.3 µM (inactive) in the test with EKVX; 17.2 µM (inactive) in the test with NCI-H522; 14.4 µM (inactive) in the test on A549; 4.73 µM (inactive) in the test with 786-0; 41.6 µM (inactive) with MOLT-4; 11.8 µM (inactive) in the test on SF-295. For the same compound, the GI50 was 16.1 µM (inactive) in the test with SF-539; 5.09 µM (inactive) in the test with RPMI-8226; 21.4 µM (inactive) with HT-29; 17.6 µM (inactive) in the test on SNB-19; 19.8 µM (inactive) with U-251; 11.3 µM (inactive) in the test on SF-268. The GI50 with TK-10 is 24.8 µM (inactive); in the test with SNB-75 it was 40.9 µM (inactive); with OVCAR-4, 19.5 µM (inactive).
With `Cc1ccccc1NC(=O)C(=O)CC(=O)c1c(C)[n+]([O-])c2ccccc2[n+]1[O-]`, the GI50 in the test on EKVX, in the test on A549, with Malme-3M, in the test with 786-0, with SF-295 and in the test with SF-539 was > 100 µM (inactive) in each case. The GI50 is > 100 µM (inactive) with RPMI-8226; > 100 µM (inactive) with HT-29; > 100 µM (inactive) with SNB-19; > 100 µM (inactive) with U-251; > 100 µM (inactive) in the test on SF-268; 40 µM (inactive) with SNB-75. The GI50 in the test with OVCAR-4 was 76.9 µM (inactive).
On to `Nc1nc2c(-c3ccc([N+](=O)[O-])cc3)nnn2c2ccccc12`, for which the GI50 was > 100 µM (inactive) in the test on EKVX; > 100 µM (inactive) in the test with HL-60; > 100 µM (inactive) in the test with A549; > 100 µM (inactive) in the test on Malme-3M; 84.5 µM (inactive) in the test on 786-0; > 100 µM (inactive) with MOLT-4. In addition, the GI50 in the test with SF-295 is 62.1 µM (inactive); in the test on SF-539 it was > 100 µM (inactive); in the test on RPMI-8226, > 100 µM (inactive); in the test with HT-29, > 100 µM (inactive); with SNB-19 it was 17.5 µM (inactive); in the test with U-251, 17.9 µM (inactive). In addition, the GI50 with SF-268 was > 100 µM (inactive); with TK-10, 21 µM (inactive); in the test on SNB-75 it was > 10 µM (inactive); in the test with OVCAR-4, > 100 µM (inactive).
Turning to `O=S(O)CCCCSSCCCCSSCCCCS(=O)O`, the GI50 was 6.38 µM (inactive) with EKVX; 3.25 µM (inactive) with HL-60; 13 µM (inactive) in the test on NCI-H522; 34 µM (inactive) in the test on A549; 15.8 µM (inactive) in the test with Malme-3M; > 100 µM (inactive) with 786-0. The GI50 in the test on MOLT-4 was 0.851 µM (active); in the test on SF-295, 30.1 µM (inactive); with SF-539, 66.2 µM (inactive); with HT-29, > 10 µM (inactive); in the test on SNB-19 it was > 100 µM (inactive); in the test on U-251, > 100 µM (inactive). Also, the GI50 in the test on SF-268 is 27.4 µM (inactive); in the test with TK-10, 26.4 µM (inactive); in the test on SNB-75, 6.31 µM (inactive); in the test with OVCAR-4, 16 µM (inactive).
`CCN1CC2(C)CC[C@@H](OC)C34[C@@H]2[C@H](OC(C)=O)C2(OCO[C@@]25C[C@H](OC)C2C[C@]3(O)[C@@H]5[C@H]2O)[C@H]14`: the GI50 is > 100 µM (inactive) in the test with EKVX; > 100 µM (inactive) in the test with HL-60; > 100 µM (inactive) in the test on NCI-H522; > 100 µM (inactive) with A549; > 100 µM (inactive) with Malme-3M; 34.2 µM (inactive) with 786-0. Besides, the GI50 in the test with SF-295, in the test with SF-539, in the test with HT-29, in the test on SNB-19, with U-251 and in the test with SF-268 was > 100 µM (inactive) throughout. In addition, the GI50 in the test with TK-10, in the test on SNB-75 and in the test on OVCAR-4 was > 100 µM (inactive) throughout.
